The source of these data is ChEMBL document CHEMBL6114975, “Discovery of 2,4-quinazolinedione derivatives as LC3B recruiters in the facilitation of protein complex degradations” (Eur J Med Chem, 2025).

Assay [1] concerns WSUDLCL2. The experiment in a line: Antiproliferative activity against human WSUDLCL2 cells.
For assay [2], the target named is Cyclin-dependent kinase 9 (Homo sapiens) (UniProt P50750). The following applies: dose 10.0 nM.
Description: Inhibition of CDK9 (unknown origin) at 10 nM relative to control
Assay [3] shares this target. The following applies: dose 100.0 nM.
Description: Inhibition of CDK9 (unknown origin) at 100 nM relative to control

Sequence of Cyclin-dependent kinase 9 (Homo sapiens) (P50750 whole entry): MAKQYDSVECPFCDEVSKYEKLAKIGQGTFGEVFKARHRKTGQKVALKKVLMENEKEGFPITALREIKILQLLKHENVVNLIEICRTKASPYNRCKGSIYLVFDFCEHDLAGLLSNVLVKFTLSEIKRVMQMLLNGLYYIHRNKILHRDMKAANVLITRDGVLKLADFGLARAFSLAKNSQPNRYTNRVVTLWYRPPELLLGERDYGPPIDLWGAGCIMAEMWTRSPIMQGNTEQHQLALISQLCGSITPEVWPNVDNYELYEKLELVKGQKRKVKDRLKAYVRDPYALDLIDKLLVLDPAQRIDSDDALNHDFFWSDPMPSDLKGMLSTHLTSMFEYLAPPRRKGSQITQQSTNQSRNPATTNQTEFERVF

`CC(C)(C)c1cnc(CSc2cnc(NC(=O)C3CCN(CCCn4c(=O)n(Cc5ccncc5)c(=O)c5ccc(Cl)cc54)CC3)s2)o1` came in with an IC50 in assay [1] of 82 nM. Also, the inhibition in assay [2] turned out to be 13%; in assay [3] it was 85%.

As to `CCn1c(=O)c2ccc(Cl)cc2n(CCCN2CCC(C(=O)Nc3ncc(SCc4ncc(C(C)(C)C)o4)s3)CC2)c1=O`, in assay [1], inhibition was half-maximal at 332 nM (IC50). For the same compound, the inhibition in assay [2] was -2%; in assay [3], 82%.

In assay [1], `CC(C)(C)c1cnc(CSc2cnc(NC(=O)C3CCNCC3)s2)o1` [BMS-387032] registered an IC50 of 201 nM. Moreover, the inhibition in assay [2] is 22%; in assay [3], 83%.

Compound `CC(C)(C)c1cnc(CSc2cnc(NC(=O)C3CCN(CC(=O)NCCOCCOCCOCCNc4cccc5c4C(=O)N(C4CCC(=O)NC4=O)C5=O)CC3)s2)o1` (stereo not given) had an IC50 in assay [1] of 310 nM. For the same compound, the inhibition in assay [3] stood at 13%.

As for `CC(C)(C)c1cnc(CSc2cnc(NC(=O)C3CCN(CCCn4c(=O)n(Cc5ccccc5)c(=O)c5cccnc54)CC3)s2)o1`, inhibition in assay [1] was half-maximal at 326 nM (IC50). For the same compound, the inhibition in assay [2] stood at 19%; in assay [3] it was 84%.

In the case of `CC(C)(C)c1cnc(CSc2cnc(NC(=O)C3CCN(CCCn4c(=O)n(Cc5ccncc5)c(=O)c5cccnc54)CC3)s2)o1`, in assay [1], half-maximal inhibition (IC50) required 13 nM. Moreover, the inhibition in assay [2] was 30%; in assay [3], 88%.

`CCn1c(=O)c2cccnc2n(CCCN2CCC(C(=O)Nc3ncc(SCc4ncc(C(C)(C)C)o4)s3)CC2)c1=O`: the IC50 in assay [1] came to 39 nM. Further, the values for the inhibition in assay [2] and in assay [3] were 27% and 83%, respectively.

Broadly, the IC50 is the concentration that gives 50% inhibition. Low readings indicate greater potency in that assay, high ones weaker potency in that assay. As a reminder, the inhibition is the change of the read-out against control, counted positive when it falls.
